Earlier results on 3 compounds are cited in publication PMC12177174 (iScience, 2025).

One series relates to tumor. The conditions noted are these: cited from earlier work.
The conditions of series [1]: cited from earlier work.
The subject of another series is bone mineral density. The following applies: cited from earlier work.
The test system of the next series is tumor cell proliferation. The following applies: cited from earlier work.
The conditions of series [2]: cited from earlier work. This is another data set of the same source.
A further series relates to heart repair. The conditions noted are these: cited from earlier work.
The test system of a further series is skin fibrosis. The conditions noted are these: cited from earlier work.
Another series concerns Axin2 mRNA. The conditions noted are these: cited from earlier work.
The conditions of series [3]: 20 patients, median 22 weeks treatment; cited from earlier work.

Read-outs that look alike come from different tables or passages of the source. A value given as a limit tells only on which side of the number the result lay.

In the case of `Cn1c(=O)c2c(ncn2CC(=O)Nc2ccc(-c3ccccc3)nn2)n(C)c1=O` [ETC-159], the tumor response result in the series with tumor was “induces tumor regression”. Also, the participants reporting dysgeusia in series [1] is ≤ 50%. The “circulating CTX-1 levels” value in series [1] (patients with advanced cancer) is recorded as “increased circulating CTX-1 levels”. Further, the bone mineral density entry with bone mineral density is “caused loss of bone mineral density”.
With `Cc1c(-c2ccnc(C(F)(F)F)c2)ncn1CC(=O)Nc1ccc(-c2cnccn2)cn1` [RXC004], the tumor cell proliferation entry in the series on tumor cell proliferation was “inhibits tumor cell proliferation”.
In the case of `Cc1cc(-c2ncc(CC(=O)Nc3ccc(-c4cnccn4)cn3)cc2C)ccn1` [WNT974], the participants reporting dysgeusia in [2] was ≤ 50%. In series [2] (various advanced cancers), the “participants with reduced tumor size” value is listed as 74%. Besides, in the series with heart repair, the “heart repair following cardiac injury” value is given as “promoted heart repair”. Moreover, the skin fibrosis entry with skin fibrosis is recorded as “prevented progression of skin fibrosis”. Besides, the “mean reduction in AXIN2 mRNA levels in skin biopsies” value in the series with Axin2 mRNA is on record as 50%–60%. Besides, the “patients who developed fragility fractures” value in series [3] is 45%. Further, the bone mineral density result with bone mineral density was “caused loss of bone mineral density”.
